Consider 44 compounds from ChEMBL document CHEMBL3259812, “Structural modifications of 4-aryl-4-oxo-2-aminylbutanamides and their acetyl- and butyrylcholinesterase inhibitory activity. Investigation of AChE-ligand interactions by docking calculations and molecular dynamics simulations” (Eur J Med Chem, 2014).

The structures appear in SMILES notation. Activity calls are given as the source filed them. The rule behind the calls is not given here. Where only a bound is given, the exact number is not on record here.

One may read the IC50 as the concentration that inhibits the measured activity by half. The low end stands for higher potency, the high end for lower potency. A word on the Ki: it is a dissociation constant, usually derived from enzyme kinetics or from competition with a known ligand.

The subject of one data set is Electrophorus electricus. The data set can be described thus: Inhibition of electric eel acetylcholinesterase type VI-S using acetylthiocholine iodide as substrate assessed as residual activity at 8.5 uM preincubated for 35 mins followed by enzyme addition measured after 3 mins by Ellman's method relative to control. On the technique in general: In Ellman's method for cholinesterases, released thiocholine reacts with DTNB.
On to `CC(C)c1ccc(NC(=O)C(CC(=O)c2cccc3c2CCCC3)N2CCN(C)CC2)cc1` (racemic), for which the Activity was determined as 86.5%.

For a further data set, the target named is Cholinesterase (Equus caballus) (UniProt P81908). The data set can be described thus: Inhibition of horse serum BChE using butyrylthiocholine iodide as substrate assessed as residual activity at 10 uM preincubated for 35 mins followed by enzyme addition measured after 3 mins by Ellman's method relative to control.
Cholinesterase (Equus caballus), sequence (P81908 whole entry): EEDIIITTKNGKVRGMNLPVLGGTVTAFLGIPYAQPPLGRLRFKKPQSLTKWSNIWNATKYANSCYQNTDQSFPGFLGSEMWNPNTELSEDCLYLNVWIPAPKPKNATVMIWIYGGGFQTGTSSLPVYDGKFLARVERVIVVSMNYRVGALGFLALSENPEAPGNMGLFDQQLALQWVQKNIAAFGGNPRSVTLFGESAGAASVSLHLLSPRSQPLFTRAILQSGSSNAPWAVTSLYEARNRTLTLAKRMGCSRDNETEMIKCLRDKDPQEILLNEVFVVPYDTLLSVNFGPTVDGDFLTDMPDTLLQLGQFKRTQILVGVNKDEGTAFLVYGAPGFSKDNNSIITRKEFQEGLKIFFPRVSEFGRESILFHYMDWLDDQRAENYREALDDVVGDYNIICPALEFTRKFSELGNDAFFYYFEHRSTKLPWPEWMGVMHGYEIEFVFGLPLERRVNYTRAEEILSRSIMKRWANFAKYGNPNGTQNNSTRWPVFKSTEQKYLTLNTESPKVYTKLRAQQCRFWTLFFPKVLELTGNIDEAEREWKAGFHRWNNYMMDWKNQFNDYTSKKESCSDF
As to `CC(C)c1ccc(C(=O)CC(C(=O)NC2CCCCC2)N2CCOCC2)cc1` (racemic), the Activity is 46.8%. Still for that read-out and setting: under `CC(C)c1ccc(NC(=O)C(CC(=O)c2ccc(C(C)C)cc2C(C)C)N2CCOCC2)cc1` (racemic) stands 73.6%; under `COc1ccc(NC(=O)C(CC(=O)c2ccc(C(C)C)cc2C(C)C)N2CCOCC2)cc1OC` (racemic), 62.4%.

The next data set has as its system Electrophorus electricus. Description: Inhibition of electric eel acetylcholinesterase type VI-S using acetylthiocholine iodide as substrate assessed as residual activity at […] preincubated for 35 mins followed by enzyme addition measured after 3 mins by Ellman's method relative to control.
Take `CC(C)c1ccc(NC(=O)C(CC(=O)c2ccc(C(C)C)cc2C(C)C)N2CCN(C)CC2)cc1` (racemic): the Activity is 43.6%.

As for `CC(C)c1ccc(NC(=O)C(CC(=O)c2ccc(C(C)C)cc2C(C)C)N2CCOCC2)cc1` (racemic), the Activity worked out at 44.4%.

In a further data set the target is Cholinesterase (Equus caballus) (UniProt P81908). The data set can be described thus: Inhibition of horse serum BChE using butyrylthiocholine iodide as substrate assessed as residual activity at 20 uM preincubated for 35 mins followed by enzyme addition measured after 3 mins by Ellman's method relative to control.
Take `CC(C)c1ccc(C(=O)CC(C(=O)NC2CCCCC2)N2CCCCC2)c(C(C)C)c1` (racemic): the Activity turned out to be 72.7%. On the same count and under the same terms, then `CC(C)c1ccc(C(=O)CC(C(=O)NC2CCCCC2)N2CCCCC2)cc1` (racemic), with 65%; and `CC(C)c1ccc(C(=O)CC(C(=O)NC2CCCCC2)N2CCN(C)CC2)cc1` (racemic), with 66.2%. Consider `CC(C)c1ccc(C(=O)CC(C(=O)NC2CCCCC2)n2ccnc2)c(C(C)C)c1` (racemic), for which the Activity was 65.8%. In the case of `CC(C)c1ccc(C(=O)CC(C(=O)NC2CCCCC2)n2ccnc2)cc1` (racemic), the Activity is 76%. As to `CC(C)c1ccc2c(c1C(=O)CC(C(=O)NC1CCCCC1)N1CCCCC1)CCCC2` (racemic), the Activity came out at 61.5%. With `CC(C)c1ccc2c(c1C(=O)CC(C(=O)NC1CCCCC1)N1CCN(C)CC1)CCCC2` (racemic), the Activity was 39.1%.

Turning to `CC(C)c1ccc2c(c1C(=O)CC(C(=O)NC1CCCCC1)N1CCOCC1)CCCC2` (racemic), the Activity amounted to 75.2%.

For `CC(C)c1ccc2c(c1C(=O)CC(C(=O)NC1CCCCC1)n1ccnc1)CCCC2` (racemic), the Activity is 52.2%.

Take `CN1CCN(C(CC(=O)c2cccc3c2CCCC3)C(=O)NC2CCCCC2)CC1` (racemic): the Activity was 56.7%. As for `COc1ccc(NC(=O)C(CC(=O)c2ccc(C(C)C)cc2C(C)C)n2ccnc2)cc1OC` (racemic), the Activity is 78.4%.

The target is the same in the next data set. Description: Inhibition of horse serum BChE using butyrylthiocholine iodide as substrate assessed as residual activity at 15 uM preincubated for 35 mins followed by enzyme addition measured after 3 mins by Ellman's method relative to control.
Consider `CC(C)c1ccc(C(=O)CC(C(=O)Nc2ccccc2)N2CCCCC2)c(C(C)C)c1` (centres undefined), for which the Activity came out at 60.1%. `O=C(CC(C(=O)Nc1ccccc1)N1CCCCC1)c1cccc2c1CCCC2` (centres undefined): the Activity was 78.5%. Still for that read-out and setting: under `CC(C)c1ccc(NC(=O)C(CC(=O)c2ccc(C(C)C)cc2)N2CCN(C)CC2)cc1` (racemic) stands 72.4%.

The subject of another data set is Electrophorus electricus. Description: Inhibition of electric eel acetylcholinesterase type VI-S using acetylthiocholine iodide as substrate assessed as residual activity at 20 uM preincubated for 35 mins followed by enzyme addition measured after 3 mins by Ellman's method relative to control.
In the case of `COc1cc(NC(=O)C(CC(=O)c2ccc(C(C)C)cc2)N2CCN(C)CC2)cc(OC)c1` (racemic), the Activity was found to be 76.7%.

The next data set deals with T1, Cholinesterase (Equus caballus, UniProt P81908).
T1 sequence (P81908 whole entry): as above
Description: (§1) Inhibition of horse serum BChE using butyrylthiocholine iodide as substrate preincubated for 35 mins followed by enzyme addition measured after 3 mins by Ellman's method
For `CC(C)c1ccc(C(=O)CC(C(=O)NC2CCCCC2)N2CCOCC2)c(C(C)C)c1` (centres undefined), the concentration for half-maximal inhibition (IC50) is above 20 µM.

For the compound `COc1cc(NC(=O)C(CC(=O)c2ccc(C(C)C)cc2)n2ccnc2)cc(OC)c1` (racemic), the IC50 was above 20 µM. As to `COc1cc(NC(=O)C(CC(=O)c2ccc(C(C)C)cc2)N2CCOCC2)cc(OC)c1` (racemic), the concentration for half-maximal inhibition (IC50) was above 20 µM. Same read-out and setting: then `COc1cc(NC(=O)C(CC(=O)c2ccc(C(C)C)cc2)N2CCN(C)CC2)cc(OC)c1` (racemic), with above 20 µM; and `CC(C)c1ccc(NC(=O)C(CC(=O)c2ccc(C(C)C)cc2)n2ccnc2)cc1` (racemic), with above 20 µM; and `CC(C)c1ccc(NC(=O)C(CC(=O)c2ccc(C(C)C)cc2)N2CCOCC2)cc1` (racemic), with above 20 µM. Same read-out and setting: then `COc1ccc(NC(=O)C(CC(=O)c2ccc(C(C)C)cc2C(C)C)N2CCCCC2)cc1OC` (racemic), with above 7.5 µM; and `COc1ccc(NC(=O)C(CC(=O)c2ccc(C(C)C)cc2C(C)C)N2CCN(C)CC2)cc1OC` (racemic), with 5.26 µM.

For `CC(C)c1ccc(NC(=O)C(CC(=O)c2ccc(C(C)C)cc2C(C)C)n2ccnc2)cc1` (racemic), the concentration for half-maximal inhibition (IC50) is above 20 µM. `CC(C)c1ccc(NC(=O)C(CC(=O)c2ccc(C(C)C)cc2C(C)C)N2CCN(C)CC2)cc1` (racemic) had an IC50 of 0.74 µM. Same read-out and setting: then `CC(C)c1ccc(C(=O)CC(C(=O)NC2CCCCC2)N2CCN(C)CC2)c(C(C)C)c1` (racemic), with 2.25 µM; and `O=C(CC(C(=O)NC1CCCCC1)N1CCCCC1)c1cccc2c1CCCC2` (racemic), with above 20 µM; and `O=C(CC(C(=O)NC1CCCCC1)n1ccnc1)c1cccc2c1CCCC2` (racemic), with above 20 µM. The same measure, in the same setting: then `CC(C)c1ccc(NC(=O)C(CC(=O)c2cccc3c2CCCC3)n2ccnc2)cc1` (racemic), with above 20 µM; and `CC(C)c1ccc(NC(=O)C(CC(=O)c2cccc3c2CCCC3)N2CCOCC2)cc1` (racemic), with above 15 µM. For the compound `CC(C)c1ccc(NC(=O)C(CC(=O)c2cccc3c2CCCC3)N2CCN(C)CC2)cc1` (racemic), the midpoint of inhibition, the IC50, lay at 10.8 µM.

The compound `CC(C)c1ccc(C(=O)CC(C(=O)Nc2ccccc2)N2CCC(Cc3ccccc3)CC2)cc1` (racemic) gave a half-maximal inhibitory concentration (IC50) above 20 µM. For `COc1cc(NC(=O)C(CC(=O)c2ccc(C(C)C)cc2)N2CCN(CCN(C)C)CC2)cc(OC)c1` (racemic), the IC50 was above 20 µM.

In a further data set the target is Cholinesterase (Equus caballus) (UniProt P81908). The data set can be described thus: Inhibition of horse serum BChE using butyrylthiocholine iodide as substrate assessed as residual activity at 30 uM preincubated for 35 mins followed by enzyme addition measured after 3 mins by Ellman's method relative to control.
On to `CC(C)c1ccc(C(=O)CC(C(=O)Nc2ccccc2)n2ccnc2)cc1` (centres undefined), for which the Activity worked out at 90%.

The target is the same in the next data set. Description: Inhibition of horse serum BChE using butyrylthiocholine iodide as substrate assessed as residual activity at 40 uM preincubated for 35 mins followed by enzyme addition measured after 3 mins by Ellman's method relative to control.
With `CC(C)c1ccc(C(=O)CC(C(=O)Nc2ccccc2)N2CCOCC2)cc1` (centres undefined), the Activity is 72.8%. For the compound `O=C(CC(C(=O)Nc1ccccc1)N1CCOCC1)c1cccc2c1CCCC2` (centres undefined), the Activity was 87%. On the same count and under the same terms, under `O=C(CC(C(=O)Nc1ccccc1)n1ccnc1)c1cccc2c1CCCC2` (centres undefined) stands 83%.

The test system of another data set is Electrophorus electricus. The data set can be described thus: Inhibition of electric eel acetylcholinesterase type VI-S using acetylthiocholine iodide as substrate assessed as residual activity at 15 uM preincubated for 35 mins followed by enzyme addition measured after 3 mins by Ellman's method relative to control.
With `CC(C)c1ccc(C(=O)CC(C(=O)NC2CCCCC2)N2CCCCC2)cc1` (racemic), the Activity was 63.1%. Regarding `CC(C)c1ccc(C(=O)CC(C(=O)NC2CCCCC2)n2ccnc2)cc1` (racemic), the Activity is 65.3%.

A further data set deals with Electrophorus electricus. Description: Reversible inhibition of electric eel acetylcholinesterase type VI-S using acetylthiocholine iodide as substrate by Lineweaver-Burk plot analysis.
For `CC(C)c1ccc(NC(=O)C(CC(=O)c2ccc(C(C)C)cc2C(C)C)N2CCCCC2)cc1` (racemic), the inhibition result was “Active”.

Tested on in another data set: not listed separately
Description: Stability of the compound. The data set is classed as physicochemical.
For the compound `COc1cc(NC(=O)C(CC(=O)c2ccc(C(C)C)cc2)N2CCCCC2)cc(OC)c1` (racemic), the Stability result is listed as “Unstable”.

Consider `CC(C)c1ccc(NC(=O)C(CC(=O)c2ccc(C(C)C)cc2)N2CCCCC2)cc1` (racemic), for which the Stability entry is “Unstable”.

The test system of a further data set is Electrophorus electricus. The data set can be described thus: Inhibition of electric eel acetylcholinesterase type VI-S using acetylthiocholine iodide as substrate assessed as residual activity at 25 uM preincubated for 35 mins followed by enzyme addition measured after 3 mins by Ellman's method relative to control.
Turning to `CC(C)c1ccc(C(=O)CC(C(=O)NC2CCCCC2)N2CCN(C)CC2)cc1` (racemic), the Activity amounted to 86.2%. Still for that read-out and setting: under `CC(C)c1ccc(C(=O)CC(C(=O)NC2CCCCC2)N2CCOCC2)cc1` (racemic) stands 85.1%.

The target of the next data set is T1, Cholinesterase. This is another data set of the same source.
Description: as §1
With `CC(C)c1ccc(NC(=O)C(CC(=O)c2ccc(C(C)C)cc2C(C)C)N2CCCCC2)cc1` (racemic), the IC50 entry was “ND(Insoluble)”. As to `O=C(CC(C(=O)NC1CCCCC1)N1CCOCC1)c1cccc2c1CCCC2` (racemic), the IC50 result was “ND(Insoluble)”. Still for that read-out and setting: under `CC(C)c1ccc(NC(=O)C(CC(=O)c2cccc3c2CCCC3)N2CCCCC2)cc1` (racemic) stands “ND(Insoluble)”.

Molecular target in a further data set: not listed separately
The data set can be described thus: Mixed type inhibition of electric eel acetylcholinesterase type VI-S using acetylthiocholine iodide as substrate assessed as enzyme-inhibitor complex by Lineweaver-Burk plot analysis. Further details: species or system Electrophorus electricus.
As to `CC(C)c1ccc(NC(=O)C(CC(=O)c2ccc(C(C)C)cc2C(C)C)N2CCCCC2)cc1` (racemic), the Ki amounted to 0.52 µM.
